According to patent US20160051665A1, “INDUCTION OF IMMUNE RESPONSE” (priority 2010, published 2016):

What was measured:
[1] = serum ALT, marker of hepatocellular injury, in woodchucks; assay type: in vivo, woodchuck
Procedure: All experimental procedures involving woodchucks were performed under protocols approved by the Cornell University Institutional Animal Care and Use Committee. Woodchucks were born to WHV-negative females in environmentally controlled laboratory animal facilities and inoculated at 3 days of age with 5 million infectious doses of a standardized WHV inoculum (23). Woodchucks were selected as chronic WHV carriers based on persistent detection of WHV surface antigen (WHsAg) and WHV DNA in serum prior to treatments. All animals were free of HCC at the beginning of the study as determined by hepatic ultrasound examination and normal serum activity of γ-glutamyl-transferase (GGT).
Twenty adult chronically infected woodchucks were stratified by age, sex, body weight, serum viral load, and serum GGT activity into four treatment groups of five animals each. Drug was administered orally at 100 mg/kg (in sterile water), chosen after an initial dose finding trial. […] Prior to alum adsorption, vaccine was tested in naïve, WHV-susceptible animals and no residual virus was detected. […]
Serum WHV DNA was measured quantitatively by dot blot hybridization (assay sensitivity, ≧1.0×10^7 WHV genome equivalents per ml [WHVge/ml]) (25). Serum WHsAg, antibodies to WHV core antigen (anti-WHc), and WHV surface antigen (anti-WHs) were determined with WHV-specific enzyme immunoassays (26). […]

glucosidases = experiment: glycan analysis of serum: tri-glucosylated glycans (Glu3); assay type: in vivo, woodchuck
Procedure: Sample preparation for glycan analysis was performed essentially as described (27). HPLC separation was performed using the Waters Alliance HPLC system with a Waters fluorescence detector, and quantified using the Millenium Chromatography Manager (Waters Corporation, Milford, Mass.). Tri-glucosylated structures were identified by comparison to known standards (27, 28).
In vivo, levels of circulating glycoproteins with N-glycans bearing three terminal glucose residues reflect the extent of glucosidase inhibition (11). […] Note that BuCas-treated animals that were negative for tri-glucosylated glycans at the 10-week time point were positive at one or more other time points (data not shown). No tri-glucosylated glycans were detected in any drug-naïve animals (Table 2).

glucosidase I = target: T1, glucosidase I (Homo sapiens, UniProt Q13724); conditions: cited from earlier work
T1 sequence (Q13724 1-837): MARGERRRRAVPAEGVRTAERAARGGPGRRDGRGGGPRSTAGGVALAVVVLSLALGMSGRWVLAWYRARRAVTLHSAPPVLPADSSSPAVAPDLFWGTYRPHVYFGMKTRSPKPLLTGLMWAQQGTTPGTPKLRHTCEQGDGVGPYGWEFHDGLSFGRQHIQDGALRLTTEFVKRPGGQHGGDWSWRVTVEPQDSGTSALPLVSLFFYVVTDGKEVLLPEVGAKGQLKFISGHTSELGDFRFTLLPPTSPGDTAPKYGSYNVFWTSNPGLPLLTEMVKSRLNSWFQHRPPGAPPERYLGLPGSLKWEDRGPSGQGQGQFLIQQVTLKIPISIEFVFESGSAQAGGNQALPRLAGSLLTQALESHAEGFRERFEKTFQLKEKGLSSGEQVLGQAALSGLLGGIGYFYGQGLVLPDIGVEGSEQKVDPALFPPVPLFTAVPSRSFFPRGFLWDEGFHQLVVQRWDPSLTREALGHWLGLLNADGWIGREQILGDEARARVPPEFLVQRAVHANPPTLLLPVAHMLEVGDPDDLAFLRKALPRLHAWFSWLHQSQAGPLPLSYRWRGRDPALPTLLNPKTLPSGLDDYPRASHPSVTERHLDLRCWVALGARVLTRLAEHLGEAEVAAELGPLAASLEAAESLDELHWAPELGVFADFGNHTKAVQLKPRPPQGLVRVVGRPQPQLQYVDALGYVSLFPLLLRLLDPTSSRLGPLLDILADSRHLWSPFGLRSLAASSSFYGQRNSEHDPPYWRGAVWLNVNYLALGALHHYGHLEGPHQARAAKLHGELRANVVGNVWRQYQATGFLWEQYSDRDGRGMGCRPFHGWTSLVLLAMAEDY

Q: With `CCCC(=O)O[C@H]1CN2CC[C@H](O)[C@@H]2[C@@H](O)[C@H]1O` [BuCas, 6-O-butanoyl castanospermine] as the compound, how does the “ALT, Av(range)” value ([1]; week 0 (baseline)) read?
A: 7.4 (4-9) Units/L

Q: And the “ALT, Av(range)” value ([1]; week 10)?
A: 15.6 (10-22) Units/L

Q: What about the “glycan processing (tri-glucosylated glycans in sera), in words” value (glucosidases; sera of treated woodchucks) of the same compound?
A: impaired glycan processing

Q: And the “Glu3, % (tri-glucosylated glycans in serum)” value (glucosidases; week 10)?
A: .49 (0-.90) %

Q: And the “potency as inhibitor of glucosidase I relative to deoxynojirimycin” value (glucosidase I)?
A: more potent inhibitors of glucosidase I than deoxynojirimycin
